Experimental data taken from patent US20240360151A1 (SANOFI, priority 2023, published 2024).

Legend:
NLRP3 inflammasome = molecular target: T1, NLRP3 inflammasome (Homo sapiens, UniProt Q96P20); test: IL-1β secretion assay (NLRP3 IC50) in LPS-primed, nigericin-activated THP-1 cells, HTRF; assay type: cell-based; conditions: monocytic THP-1 cells; LPS 10 ng/mL 3 h priming, then compound + nigericin 10 μM 2 h; relative IC50, 10 concentrations, geometric mean
T1 construct: endogenous in cells; host or cells: THP-1 monocytic cells
T1 sequence (Q96P20 whole entry): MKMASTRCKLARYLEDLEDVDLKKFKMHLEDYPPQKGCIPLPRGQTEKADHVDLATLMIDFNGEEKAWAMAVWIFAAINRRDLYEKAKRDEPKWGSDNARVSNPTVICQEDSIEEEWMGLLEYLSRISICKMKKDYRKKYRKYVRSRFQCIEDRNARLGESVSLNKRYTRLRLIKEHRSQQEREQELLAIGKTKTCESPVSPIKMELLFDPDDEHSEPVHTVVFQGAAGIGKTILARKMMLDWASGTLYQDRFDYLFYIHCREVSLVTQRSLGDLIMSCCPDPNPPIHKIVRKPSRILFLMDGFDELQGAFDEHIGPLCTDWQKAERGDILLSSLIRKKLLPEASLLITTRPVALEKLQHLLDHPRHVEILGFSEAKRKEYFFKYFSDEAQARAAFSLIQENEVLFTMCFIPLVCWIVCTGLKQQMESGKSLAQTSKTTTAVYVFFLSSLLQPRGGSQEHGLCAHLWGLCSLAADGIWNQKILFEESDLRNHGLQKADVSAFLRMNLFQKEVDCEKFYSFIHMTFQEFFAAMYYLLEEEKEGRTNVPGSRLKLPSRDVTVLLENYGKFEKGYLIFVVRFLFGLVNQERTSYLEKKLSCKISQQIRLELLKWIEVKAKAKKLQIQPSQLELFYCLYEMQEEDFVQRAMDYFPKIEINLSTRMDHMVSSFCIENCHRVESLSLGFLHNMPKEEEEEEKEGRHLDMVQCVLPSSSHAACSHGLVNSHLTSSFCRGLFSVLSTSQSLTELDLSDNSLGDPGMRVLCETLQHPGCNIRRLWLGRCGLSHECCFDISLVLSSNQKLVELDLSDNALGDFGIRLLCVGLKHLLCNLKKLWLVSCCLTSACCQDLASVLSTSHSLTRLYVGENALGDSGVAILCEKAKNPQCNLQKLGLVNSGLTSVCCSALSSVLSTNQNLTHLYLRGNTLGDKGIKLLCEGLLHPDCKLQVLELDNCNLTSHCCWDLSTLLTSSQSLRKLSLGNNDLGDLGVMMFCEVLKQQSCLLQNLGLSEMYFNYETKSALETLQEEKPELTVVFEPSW
How it was run: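 IL-1β in supernatant read by HTRF after 2 h co-incubation of compound (0.1% DMSO, 10 concentrations, 1:3 series) with nigericin at 10 μM final, following 3 h LPS (10 ng/mL) priming of THP-1 monocytes at 37° C. Inhibition normalised to unactivated and no-compound controls; geometric-mean relative IC50 from 4-parameter logistic model.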

[1] = tested on: NF-kB pathway (TNF-α secretion by THP-1 cells); test: TNF-α secretion assay in LPS-stimulated THP-1 cells, Lumit immunoassay; assay type: cell-based, human; conditions: Homo sapiens, THP-1, 3 h, monocytic THP-1 cells, LPS 10 ng/mL, relative IC50, 10 concentrations, geometric mean
How it was run: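 TNF-α release was quantified directly in the cell plate by Lumit immunoassay after a 3-h, 10 ng/mL LPS trigger of compound-treated THP-1 cells (RPMI, 5% FBS). Percent inhibition versus no-compound and unstimulated controls fed a 4-parameter logistic fit over 10 concentrations, giving geometric-mean relative IC50.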

Compound | IC50 (NLRP3 inflammasome) [nM] | IC50 [1] [nM]
OC[C@@H]1CN(c2ccc(-c3c(O)cc(Cl)cc3Cl)nn2)CCO1 [Example 21, 3,5-dichloro-2-[6-[(2S)-2-(hydroxymethyl)morpholin-4-yl]pyridazin-3-yl]phenol] | 20 | > 10000
Cc1cc(C)c(-c2ccc(N3CCC[C@@H](N)C3)nn2)c(O)c1 [Example 31, 2-[6-[(3R)-3-amino-1-piperidyl]pyridazin-3-yl]-3,5-dimethyl-phenol; formic acid] | 520 | > 10000
Cc1cc(Cl)cc(O)c1-c1ccc(N2CCO[C@@H](CF)C2)nn1 [Example 338, 5-chloro-2-[6-[(2R)-2-(fluoromethyl)morpholin-4-yl]pyridazin-3-yl]-3-methyl-phenol] | 46 | > 10000
COc1cc(C)c(-c2nnc(N3CCO[C@H](CO)C3)cc2C)c(O)c1 [Example 119, 2-[6-[(2S)-2-(hydroxymethyl)morpholin-4-yl]-4-methyl-pyridazin-3-yl]-5-methoxy-3-methyl-phenol] | 561 | > 10000
Oc1cc(Cl)cc(Cl)c1-c1ccc(N2CC3(COC3)C2)nn1 [Example 64, 3,5-dichloro-2-[6-(2-oxa-6-azaspiro[3.3]heptan-6-yl)pyridazin-3-yl]phenol] | 222 | > 10000
[O-][S+]1CCN(c2ccc(-c3c(O)cc(Cl)cc3Cl)nn2)CC1 [Example 400, 3,5-dichloro-2-[6-(1-oxo-1,4-thiazinan-4-yl)pyridazin-3-yl]phenol] | 93 | > 10000
Cc1cc(C)c(-c2ccc(N3CCO[C@H](CO)C3)nn2)c(O)c1 [Example 8, 2-[6-[(2S)-2-(hydroxymethyl)morpholin-4-yl]pyridazin-3-yl]-3,5-dimethyl-phenol] | 20 | > 10000
CCN1CC[C@H]2OCCN(c3ccc(-c4c(C)cc(Cl)cc4O)nn3)[C@H]2C1 (single isomer, unassigned) [Example 313] | 0.3 | > 10000
Cc1cc(C(F)(F)F)cc(O)c1-c1ccc(N2CCCC(CO)C2=O)nn1 (centres unmarked) [Example 273, 3-(hydroxymethyl)-1-[6-[2-hydroxy-6-methyl-4-(trifluoromethyl)phenyl]pyridazin-3-yl]piperidin-2-one] | 456 | > 10000
Cc1cc(Cl)cc(O)c1-c1nnc(N2CCO[C@H](CO)C2)cc1C(F)F [Example 249, 5-chloro-2-[4-(difluoromethyl)-6-[(2S)-2-(hydroxymethyl)morpholin-4-yl]pyridazin-3-yl]-3-methyl-phenol] | 151 | > 10000
Cc1cccc(O)c1-c1ccc(N2CC[C@H]3CCN(C)C[C@H]32)nn1 (single isomer, unassigned) [Example 416] | 1 | > 10000
CC(=O)N1CC[C@H]2OCCN(c3nnc(-c4c(C)cc(C)cc4O)cc3C(F)F)[C@H]2C1 [Example 405, 1-[(4aS,8aR)-4-[4-(difluoromethyl)-6-(2-hydroxy-4,6-dimethyl-phenyl)pyridazin-3-yl]-3,4a,5,7,8,8a-hexahydro-2H-pyrido[4,3-b][1,4]oxazin-6-yl]ethanone] | 89 | > 10000
Cc1cc(OC(F)(F)F)cc(O)c1-c1ccc(N2CCO[C@H](CO)C2)nn1 [Example 121, 2-[6-[(2S)-2-(hydroxymethyl)morpholin-4-yl]pyridazin-3-yl]-3-methyl-5-(trifluoromethoxy)phenol] | 92 | > 10000
[2H]C([2H])(O)[C@@H]1CN(c2ccc(-c3c(C)cc(Cl)cc3O)nn2)CCO1 [Example 169, 5-chloro-2-[6-[(2S)-2-[dideuterio(hydroxy)methyl]morpholin-4-yl]pyridazin-3-yl]-3-methylphenol] | 8 | > 10000
[2H]C([2H])(O)[C@@H]1CN(c2ccc(-c3c(C)cc(C)cc3O)nn2)CCO1 [Example 165, 2-[6-[(2S)-2-[dideuterio(hydroxy)methyl]morpholin-4-yl]pyridazin-3-yl]-3,5-dimethylphenol] | 42 | 5620
Cc1cc(C)c(-c2ccc(N3CCCc4ccc(O)cc43)nn2)c(O)c1 [Example 217, 1-[6-(2-hydroxy-4,6-dimethyl-phenyl)pyridazin-3-yl]-3,4-dihydro-2H-quinolin-7-ol] | 127 | > 10000
CC(=O)NC[C@H]1CCCN(c2ccc(-c3c(O)cc(Cl)cc3Cl)nn2)C1 [Example 57, N-[[(3R)-1-[6-(2,4-dichloro-6-hydroxy-phenyl)pyridazin-3-yl]-3-piperidyl]methyl]acetamide] | 248 | > 10000

Compound | IC50 (NLRP3 inflammasome) [nM] | IC50 [1] [nM]
Cc1cc(Cl)cc(O)c1-c1ccc(N2CCO[C@H]3CCN(C)C[C@H]32)nn1 (racemic) [Example 224, 5-chloro-3-methyl-2-[6-[rac-(4aR,8aS)-6-methyl-3,4a,5,7,8,8a-hexahydro-2H-pyrido[4,3-b][1,4]oxazin-4-yl]pyridazin-3-yl]phenol] | 1 | > 10000
CCc1cc(C)c(-c2ccc(N3CCO[C@H](CO)C3)nn2)c(O)c1 [Example 245, 5-ethyl-2-[6-[(2S)-2-(hydroxymethyl)morpholin-4-yl]pyridazin-3-yl]-3-methylphenol] | 64 | > 10000
Cc1cc(C(F)(F)F)cc(O)c1-c1ccc(N2CCO[C@H](CN(C)C)C2)nn1 (single isomer, unassigned) [Example 59, 2-[6-[-2-[(dimethylamino)methyl]morpholin-4-yl]pyridazin-3-yl]-3-methyl-5-(trifluoromethyl)phenol] | 203 | > 10000
Cc1cc(C)c(-c2ccc(N3CCO[C@@H]4COCC[C@H]43)nn2)c(O)c1 (racemic) [Example 154, 3,5-dimethyl-2-[6-[rac-(4aR,8aS)-3,4a,5,7,8,8a-hexahydro-2H-pyrano[3,4-b][1,4]oxazin-1-yl]pyridazin-3-yl]phenol] | 344 | > 10000
Cc1cc(C(F)(F)F)cc(O)c1-c1ccc(N2CCO[C@H]3CCN(C4CCC4)C[C@H]32)nn1 (single isomer, unassigned) [Example 12] | 171 | > 10000
Cc1cc(C)c(-c2ccc(N3CC[C@H](O)C3)nn2)c(O)c1 [Example 71, (3S)-1-[6-(2-hydroxy-4,6-dimethyl-phenyl)pyridazin-3-yl]pyrrolidin-3-ol] | 270 | > 10000
Cc1cc(C(F)(F)F)cc(O)c1-c1ccc(N2CCO[C@H]3CCN(C)C[C@H]32)nn1 (racemic) [Example 226, 2-[6-[rac-(4aR,8aS)-6-methyl-3,4a,5,7,8,8a-hexahydro-2H-pyrido[4,3-b][1,4]oxazin-4-yl]pyridazin-3-yl]-3-methyl-5-(trifluoromethyl)phenol] | 2 | > 10000
Cc1cc(C(F)(F)F)cc(O)c1-c1ccc(N2CCOC(C(C)(C)O)C2)nn1 (single isomer, unassigned) [Example 53, 2-[6-[2-(1-hydroxy-1-methyl-ethyl)morpholin-4-yl]pyridazin-3-yl]-3-methyl-5-(trifluoromethyl)phenol] | 275 | > 10000
Cc1cccc(O)c1-c1ccc(N2CC[C@@H]3CCN(C)C[C@@H]32)nn1 (racemic) [Example 385, 3-methyl-2-[6-[rac-(3aS,7aR)-6-methyl-3,3a,4,5,7,7a-hexahydro-2H-pyrrolo[2,3-c]pyridin-1-yl]pyridazin-3-yl]phenol] | 2 | > 10000
Cc1cc(C(F)(F)F)cc(O)c1-c1ccc(N2CC[C@@H]3CCNC[C@@H]32)nn1 (single isomer, unassigned) [Example 407] | 3 | > 10000
Cc1cc(C)c(-c2cc(C#N)c(N3CCO[C@H](CO)C3)nn2)c(O)c1 [Example 158, 6-(2-hydroxy-4,6-dimethyl-phenyl)-3-[(2S)-2-(hydroxymethyl)morpholin-4-yl]pyridazine-4-carbonitrile] | 85 | > 10000
Oc1cc(Cl)cc(Cl)c1-c1ccc(N2CCO[C@@H](CF)C2)nn1 (single isomer, unassigned) [Example 237] | 24 | 4120
Cc1cc(N2CC[C@H]3CCN(C)C[C@H]32)nnc1-c1ccc(C(F)(F)F)cc1O (single isomer, unassigned) [Example 367] | 0.5 | > 10000
Cc1cc(Cl)cc(O)c1-c1ccc(N2CC[C@H](CO)C2)nn1 [Example 127, 5-chloro-2-[6-[(3S)-3-(hydroxymethyl)pyrrolidin-1-yl]pyridazin-3-yl]-3-methyl-phenol] | 125 | > 10000
OC[C@H]1CCCN(c2ccc(-c3c(O)cc(Cl)cc3Cl)nn2)C1 [Example 34, 3,5-dichloro-2-[6-[(3S)-3-(hydroxymethyl)-1-piperidyl]pyridazin-3-yl]phenol] | 95 | > 10000
Cc1cc(C(F)(F)F)cc(O)c1-c1ccc(N2CC[C@@H]3CCN(C)C[C@@H]32)nn1 [Example 392, 2-[6-[(3aS,7aR)-6-methyl-3,3a,4,5,7,7a-hexahydro-2H-pyrrolo[2,3-c]pyridin-1-yl]pyridazin-3-yl]-3-methyl-5-(trifluoromethyl)phenol] | 1 | > 10000
CCN1C[C@@H]2CCN(c3ccc(-c4c(C)cc(C(F)(F)F)cc4O)nn3)[C@@H]2C1 (racemic) [Example 243, 2-[6-[rac-(3aS,6aS)-5-ethyl-2,3,3a,4,6,6a-hexahydropyrrolo[3,4-b]pyrrol-1-yl]pyridazin-3-yl]-3-methyl-5-(trifluoromethyl)phenol] | 21 | > 10000
